How the values were obtained:
[1] = tested on: chickweed; assay: Test Example 5: herbicidal effect by foliage application, plastic box (Table 20, symbol P); assay type: in vivo, common chickweed (Stellaria media); details: foliage application, evaluated three weeks after application; for P: chickweed, herbicidal effect (criteria 0-5): AAH 320 g/ha
How it was run: (§1)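 Post-emergence foliar test in sterilized diluvial soil. Compound applied as water-diluted emulsion at a predetermined rate to 14-day-old plants; evaluation at three weeks.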

[2] = tested on: redroot pigweed; assay: Test Example 5: herbicidal effect by foliage application, plastic box (Table 20, symbol N); assay type: in vivo, redroot pigweed (Amaranthus retroflexus); details: foliage application, evaluated three weeks after application; for N: redroot pigweed, herbicidal effect (criteria 0-5): AAH 320 g/ha
How it was run: as §1

[3] = tested on: Japanese bulrush; assay: Test Example 1: herbicidal activity, application before weed generation under submerged conditions (Table 16, symbol B); assay type: in vivo, Japanese bulrush (Schoenoplectus juncoides); details: 320 g/ha applied herbicide
How it was run: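 Alluvial soil was flooded to 4 cm depth, weed seeds were sown mixed and 2.5-leaf rice seedlings were transplanted. On sowing day, the compound's emulsion, diluted in water to a set dose, was applied to the water surface. Plants grew at 25–30 °C and were scored 0–5 after three weeks.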

[4] = tested on: green foxtail; assay: Test Example 5: herbicidal effect by foliage application, plastic box (Table 20, symbol G); assay type: in vivo, green foxtail (Setaria viridis); details: foliage application, evaluated three weeks after application; for G: green foxtail, herbicidal effect (criteria 0-5): AAH 320 g/ha
How it was run: as §1

[5] = tested on: windgrass; assay: Test Example 4: herbicidal effect by soil treatment (Table 19, symbol L); assay type: in vivo, windgrass (Apera spica-venti); details: amount of applied herbicide 320 g/ha
How it was run: (§2)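 Scoring uses the grading scale of an earlier test, three weeks post-application. Treatment consists of spraying a diluted emulsion formulation across the surface of sterilized diluvial soil in which seeds are buried near 1.5 cm deep; boxes are kept in a greenhouse between 25° C. and 30° C.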

[6] = tested on: Italian ryegrass; assay: Test Example 5: herbicidal effect by foliage application, plastic box (Table 20, symbol K); assay type: in vivo, Italian ryegrass (Lolium multiflorum); details: foliage application, evaluated three weeks after application; for K: Italian ryegrass, herbicidal effect (criteria 0-5): AAH 320 g/ha
How it was run: as §1

[7] = tested on: velvetleaf; assay: Test Example 5: herbicidal effect by foliage application, plastic box (Table 20, symbol M); assay type: in vivo, velvetleaf (Abutilon theophrasti); details: foliage application, evaluated three weeks after application; for M: velvetleaf, herbicidal effect (criteria 0-5): AAH 320 g/ha
How it was run: as §1

[8] = tested on: wild oat; assay: Test Example 4: herbicidal effect by soil treatment (Table 19, symbol I); assay type: in vivo, wild oat (Avena fatua); details: amount of applied herbicide 320 g/ha
How it was run: as §2

[9] = tested on: late watergrass; assay: Test Example 2: herbicidal activity, application during weed generation under submerged conditions (Table 17, symbol A); assay type: in vivo, late watergrass (Echinochloa oryzicola); details: AAH 320 g/ha; application during weed generation, submerged conditions
How it was run: (§3)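 Mixed weed seedlings in alluvial soil under a 4 cm water layer, greenhouse-grown at 25–30° C. Compound given as a diluted emulsion into the floodwater at the 1–2 leaf stage; response graded after three weeks.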

[10] = tested on: lambsquarters; assay: Test Example 4: herbicidal effect by soil treatment (Table 19, symbol O); assay type: in vivo, lambsquarters (Chenopodium album); details: amount of applied herbicide 320 g/ha
How it was run: as §2

[11] = tested on: lambsquarters; assay: Test Example 5: herbicidal effect by foliage application, plastic box (Table 20, symbol O); assay type: in vivo, lambsquarters (Chenopodium album); details: foliage application, evaluated three weeks after application; for O: lambsquarters, herbicidal effect (criteria 0-5): AAH 320 g/ha
How it was run: as §1

[12] = tested on: Chinese sprangletop; assay: Test Example 3: herbicidal effect by foliage application, Wagner pot (Table 18, symbol D); assay type: in vivo, chinese sprangletop (Leptochloa chinensis); details: amount of applied herbicide 320 g/ha
How it was run: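 Plants were sown in alluvial soil held under 0.1–0.5 cm standing water and grown 14 days in a greenhouse at 25–30 °C. An emulsifiable formulation, water-diluted to the set dose, was then sprayed onto the foliage, and effects were scored three weeks later using previously defined criteria.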

[13] = tested on: oval-leafed pondweed; assay: Test Example 2: herbicidal activity, application during weed generation under submerged conditions (Table 17, symbol C); assay type: in vivo, oval-leafed pondweed (Monochoria vaginalis); details: AAH 320 g/ha; application during weed generation, submerged conditions
How it was run: as §3

[14] = tested on: southern crabgrass; assay: Test Example 4: herbicidal effect by soil treatment (Table 19, symbol F); assay type: in vivo, southern crabgrass (Digitaria ciliaris); details: amount of applied herbicide 320 g/ha
How it was run: as §2

[15] = tested on: blackgrass; assay: Test Example 4: herbicidal effect by soil treatment (Table 19, symbol J); assay type: in vivo, blackgrass (Alopecurus myosuroides); details: amount of applied herbicide 320 g/ha
How it was run: as §2

[16] = tested on: Italian ryegrass; assay: Test Example 4: herbicidal effect by soil treatment (Table 19, symbol K); assay type: in vivo, Italian ryegrass (Lolium multiflorum); details: amount of applied herbicide 320 g/ha
How it was run: as §2

Compound | Herbicidal effect on B: Japanese bulrush (grade 0-5) [3] | herbicidal effect on L: windgrass [5] | herbicidal effect on I: wild oat [8] | herbicidal effect rating, A: late watergrass [9] | herbicidal effect on O: lambsquarters [10] | herbicidal effect on D: Chinese sprangletop [12] | herbicidal effect rating, C: oval-leafed pondweed [13] | herbicidal effect on F: southern crabgrass [14] | herbicidal effect on J: blackgrass [15] | herbicidal effect on K: Italian ryegrass [16] | P: chickweed, herbicidal effect (criteria 0-5) [1] | N: redroot pigweed, herbicidal effect (criteria 0-5) [2] | G: green foxtail, herbicidal effect (criteria 0-5) [4] | K: Italian ryegrass, herbicidal effect (criteria 0-5) [6] | M: velvetleaf, herbicidal effect (criteria 0-5) [7] | O: lambsquarters, herbicidal effect (criteria 0-5) [11] | also measured
CCCC(=O)Oc1c(C)nn(C)c(=O)c1-c1c(-c2ccc(SCC)cc2)sc2ccc(F)cc12 [2-245] | 3 (Herbicidal rate of 40% or more and less than 70%) | 3 (Herbicidal rate of 40% or more and less than 70%) | 2 (Herbicidal rate of 20% or more and less than 40%) | 5 (Herbicidal rate of 90% or more (almost completely withered)) | 4 (Herbicidal rate of 70% or more and less than 90%) | 4 (Herbicidal rate of 70% or more and less than 90%) | 4 (Herbicidal rate of 70% or more and less than 90%) | 4 (Herbicidal rate of 70% or more and less than 90%) | 3 (Herbicidal rate of 40% or more and less than 70%) | 4 (Herbicidal rate of 70% or more and less than 90%) | – | – | – | – | – | – | herbicidal effect on P: chickweed (criteria 0-5) ([1]; 320 g/ha): 5 (Herbicidal rate of 90% or more (almost completely withered)); herbicidal effect on N: redroot pigweed (criteria 0-5) ([2]; 320 g/ha): 5 (Herbicidal rate of 90% or more (almost completely withered)); herbicidal effect on G: green foxtail (criteria 0-5) ([4]; 320 g/ha): 5 (Herbicidal rate of 90% or more (almost completely withered)); herbicidal effect on K: Italian ryegrass (criteria 0-5) ([6]; 320 g/ha): 5 (Herbicidal rate of 90% or more (almost completely withered)); herbicidal effect on M: velvetleaf (criteria 0-5) ([7]; 320 g/ha): 5 (Herbicidal rate of 90% or more (almost completely withered)); herbicidal effect on O: lambsquarters (criteria 0-5) ([11]; 320 g/ha): 5 (Herbicidal rate of 90% or more (almost completely withered))
Cc1nn(C)c(=O)c(-c2c(-c3ccc(SC4CC4)cc3)sc3ccc(F)cc23)c1O [2-254] | 3 (Herbicidal rate of 40% or more and less than 70%) | 3 (Herbicidal rate of 40% or more and less than 70%) | 1 (Herbicidal rate of 5% or more and less than 20%) | 4 (Herbicidal rate of 70% or more and less than 90%) | 4 (Herbicidal rate of 70% or more and less than 90%) | 5 (Herbicidal rate of 90% or more (almost completely withered)) | 0 (Herbicidal rate of 5% or less (almost no effect)) | 5 (Herbicidal rate of 90% or more (almost completely withered)) | 4 (Herbicidal rate of 70% or more and less than 90%) | 5 (Herbicidal rate of 90% or more (almost completely withered)) | 5 (Herbicidal rate of 90% or more (almost completely withered)) | 5 (Herbicidal rate of 90% or more (almost completely withered)) | 5 (Herbicidal rate of 90% or more (almost completely withered)) | 5 (Herbicidal rate of 90% or more (almost completely withered)) | 5 (Herbicidal rate of 90% or more (almost completely withered)) | 5 (Herbicidal rate of 90% or more (almost completely withered)) | –
Cc1nn(C)c(=O)c(-c2c(-c3ccc([S+]([O-])C(C)C)cc3)sc3ccc(F)cc23)c1O (stereo not shown) [2-257] | 0 (Herbicidal rate of 5% or less (almost no effect)) | 0 (Herbicidal rate of 5% or less (almost no effect)) | 0 (Herbicidal rate of 5% or less (almost no effect)) | 2 (Herbicidal rate of 20% or more and less than 40%) | 5 (Herbicidal rate of 90% or more (almost completely withered)) | 3 (Herbicidal rate of 40% or more and less than 70%) | 0 (Herbicidal rate of 5% or less (almost no effect)) | 3 (Herbicidal rate of 40% or more and less than 70%) | 1 (Herbicidal rate of 5% or more and less than 20%) | 3 (Herbicidal rate of 40% or more and less than 70%) | 5 (Herbicidal rate of 90% or more (almost completely withered)) | 5 (Herbicidal rate of 90% or more (almost completely withered)) | 4 (Herbicidal rate of 70% or more and less than 90%) | 5 (Herbicidal rate of 90% or more (almost completely withered)) | 5 (Herbicidal rate of 90% or more (almost completely withered)) | 5 (Herbicidal rate of 90% or more (almost completely withered)) | –
Cc1nn(C)c(=O)c(-c2c(-c3ccc(S(C)(=O)=O)cc3)sc3ccc(F)cc23)c1O [2-258] | 3 (Herbicidal rate of 40% or more and less than 70%) | 4 (Herbicidal rate of 70% or more and less than 90%) | 3 (Herbicidal rate of 40% or more and less than 70%) | 4 (Herbicidal rate of 70% or more and less than 90%) | 4 (Herbicidal rate of 70% or more and less than 90%) | 5 (Herbicidal rate of 90% or more (almost completely withered)) | 3 (Herbicidal rate of 40% or more and less than 70%) | 4 (Herbicidal rate of 70% or more and less than 90%) | 5 (Herbicidal rate of 90% or more (almost completely withered)) | 5 (Herbicidal rate of 90% or more (almost completely withered)) | 5 (Herbicidal rate of 90% or more (almost completely withered)) | 5 (Herbicidal rate of 90% or more (almost completely withered)) | 5 (Herbicidal rate of 90% or more (almost completely withered)) | 5 (Herbicidal rate of 90% or more (almost completely withered)) | 5 (Herbicidal rate of 90% or more (almost completely withered)) | 5 (Herbicidal rate of 90% or more (almost completely withered)) | –

Reference: patent US20230085307A1, “PYRIDAZINONE COMPOUND AND HERBICIDE” (NISSAN CHEMICAL CORPORATION, priority 2019, published 2023)
